Measurements reported in patent US20170266155A1, “METHOD FOR ENHANCING THE OXYGENATION LEVEL OF TISSUE CELLS AS AN ALTERNATIVE METHOD FOR HYPERBARIC OXYGEN THERAPY” (National Sun Yat-sen University, priority 2016, published 2017).

Biological target: hemoglobin (Hb) (Homo sapiens, UniProt P68871+P69905)
Assay: Oxygen equilibrium curves and P50 value of hemoglobin (Hb)
Assay type: biochemical
Details: for effect of phthalide compound together with 2,3-BPG on oxygen release efficiency of hemoglobin (Hb): combined with 2,3-BPG (FIG. 1)
Excerpt: The oxygen affinity of hemoglobin (Hb) is commonly characterized by P50 value. The P50 value is the required oxygen partial pressure to achieve 50% oxygen saturation of hemoglobin. […] An increased blood PCO2, a decreased pH or an increased 2,3-BPG level in erythrocytes can all decrease the oxygen affinity of hemoglobin (Hb), so that the oxygen equilibrium curve shifts to the right and the P50 value increases (as shown in FIG. 2); contrarily, when the oxygen affinity of hemoglobin (Hb) increases, the oxygen equilibrium curve shifts to the left and the P50 value decreases.
The oxygen affinity of hemoglobin (Hb) was commonly characterized by P50 value. The P50 value was the required oxygen partial pressure to achieve 50% oxygen saturation for hemoglobin. […] An increased blood PCO2, a decreased pH or an increased 2,3-BPG concentration in erythrocytes could decrease the oxygen affinity of hemoglobin (Hb), as a result, the oxygen equilibrium curve shifted to the right and the P50 value increased (as shown in FIG. 2); contrarily, when the oxygen affinity of hemoglobin (Hb) increased, the oxygen equilibrium curve shifted to the left and the P50 value decreased.

hemoglobin (Hb), sequence (P69905 2-142 limits assumed): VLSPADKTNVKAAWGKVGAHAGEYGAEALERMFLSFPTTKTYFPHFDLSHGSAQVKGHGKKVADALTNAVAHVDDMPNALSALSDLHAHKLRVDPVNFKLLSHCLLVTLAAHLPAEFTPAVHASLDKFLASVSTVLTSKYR
hemoglobin (Hb), sequence (P68871 2-147 limits assumed): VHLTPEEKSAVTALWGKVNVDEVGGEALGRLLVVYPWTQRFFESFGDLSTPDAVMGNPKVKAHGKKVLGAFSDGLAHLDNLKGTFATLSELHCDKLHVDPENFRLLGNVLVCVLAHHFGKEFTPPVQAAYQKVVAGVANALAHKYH

O=C(O)C(COP(=O)(O)O)OP(=O)(O)O (stereo not drawn) [2,3-BPG, 2,3-bisphosphorglycerate]
oxygen saturation fraction of hemoglobin (Hb) (12 mM 2,3-BPG, fixed oxygen partial pressure of 20 mmHg, 80% where no 2,3-BPG is present (FIG. 3)): 35% | oxygen release efficiency of Hb (12 mM 2,3-BPG, oxygen partial pressure 20 mmHg, 20% without 2,3-BPG): 65% | P50 value / shift of oxygen equilibrium curve with concentration (2,3-BPG concentrations 0.2-12 mM (FIG. 3)): the P50 value is higher | oxygen release efficiency (PO2=20 mmHg, 1.2 mM 2,3-BPG alone): 40% | oxygen saturation fraction (PO2=20 mmHg, 1.2 mM 2,3-BPG alone (FIG. 6)): approximately 60% | P50 value of hemoglobin (Hb) (approximately 4 mM 2,3-BPG, no phthalide compound (FIG. 5)): 18.8 mmHg

CCC/C=C1\OC(=O)c2ccccc21 [Z-Butylidenephthalide, Z-butylidenephthalide]
effect on oxygen release efficiency of hemoglobin (Hb) from resulting P50 values (shortest detection time frame (30 minutes) (FIG. 2)): increasing the oxygen release efficiency of hemoglobin (Hb)

CCC/C=C1\OC(=O)C2=C1CCC=C2 [Z-ligustilide]
effect of phthalide compound together with 2,3-BPG on oxygen release efficiency of hemoglobin (Hb): synergistic effect

CCC/C=C1\OC(=O)C2=C1CC[C@@H](O)[C@@H]2O [senkyunolide I]
effect of phthalide compound together with 2,3-BPG on oxygen release efficiency of hemoglobin (Hb): synergistic effect
